One experiment concerns the target T1, EED (1-441)-His protein (Homo sapiens, UniProt O75530).
T1 construct: 20 nM EED (1-441)-His protein
The experiment is described as follows: EED-H3K27Me3 peptide competition binding assay by AlphaScreen. As to conditions: IC50 class, Table 4B, read-out: Alpha screen. As for the experimental part:
EED-H3K27Me3 Peptide Competition Binding Assay by AlphaScreen (α-Screen):
The compounds at each concentration (2.5 μl of each) were transferred into a 384-well Perkin Elmer OptiPlate-384 white plates. 5 μl of solutions containing 20 nM EED (1-441)-His protein in the buffer (25 mM HEPES, pH 8, 0.02% Tween-20, 0.5% BSA) were added to the wells and then incubated with compound for 15 min. 2.5 μl of solutions containing 20 nM biotin-H3K27Me3 (19-33) peptide in the buffer (25 mM HEPES, pH 8, 0.02% Tween-20, 0.5% BSA) were added to the wells and then incubated with compound for 30 min. AlphaScreen detection beads mix was prepared immediately before use by mixing nickel chelate acceptor beads and streptavidin donor beads in a 1:1 ratio (Perkin Elmer, Product No. 6760619C/M/R) into the buffer described above. Then 10 μl of the detection beads mix was added to the plate and incubated in the dark at RT for 1 h. The final concentration of donor and acceptor beads was 10 μg/ml for each. Plates were read on CLARIOStar plate reader (BMG Labtech) using the AlphaScreen setting adapted for optimal signal detection with a 615 nm filter, after sample excitation at 680 nm. The emission signal at 615 nm was used to quantify compound inhibition. AlphaScreen signals were normalized based on the reading coming from the positive (maximum signal control) and negative controls (minimum signal control) to give percentage of activities left. The data were then fit to a dose response equation to get the IC50 values.
T1 sequence (O75530 whole entry): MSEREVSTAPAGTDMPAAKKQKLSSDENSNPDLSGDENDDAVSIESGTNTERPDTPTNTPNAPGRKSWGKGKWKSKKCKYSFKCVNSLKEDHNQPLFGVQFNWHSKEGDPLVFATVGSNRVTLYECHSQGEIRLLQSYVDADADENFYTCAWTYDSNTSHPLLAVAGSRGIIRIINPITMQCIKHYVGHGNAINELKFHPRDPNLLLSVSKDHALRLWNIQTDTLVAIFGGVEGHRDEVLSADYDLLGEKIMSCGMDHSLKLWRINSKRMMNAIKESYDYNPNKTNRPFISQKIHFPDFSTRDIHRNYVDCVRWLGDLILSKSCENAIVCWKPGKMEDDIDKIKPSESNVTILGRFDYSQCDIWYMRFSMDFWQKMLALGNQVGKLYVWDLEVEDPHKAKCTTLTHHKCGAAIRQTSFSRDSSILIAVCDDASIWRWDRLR
`CC(C)c1ccc2c(n1)CN(CC(F)(F)F)C(=O)c1ncn3c(NCc4c(F)ccc5c4CCO5)ncc-2c13` [E 15, 12-(((5-fluoro-2,3-dihydrobenzofuran-4-yl)methyl)amino)-7-isopropyl-4-(2,2,2-trifluoroethyl)-4,5-dihydro-3H-2,4,6,11,12a-pentaazabenzo[4,5] cycloocta[1,2,3-cd]inden-3-one]: the IC50 was < 10 nM.

As to `Cc1cnc2n1Cc1cc(C(F)(F)F)ncc1-c1cnc(NCc3c(F)ccc4c3CCO4)n3cnc-2c13` [E 10, N-((5-fluoro-2,3-dihydrobenzofuran-4-yl)methyl)-5-methyl-8-(trifluoromethyl)-6H-2,3,5a,9,12,13a-hexaazabenzo[4,5]cyclopenta[7,8]cycloocta[1,2,3-cd]inden-13-amine], the IC50 was < 10 nM.

In the case of `Cc1cc2c(cn1)-c1cnc(NCc3c(F)ccc4c3CCO4)n3cnc(c13)C(=O)N(C(C)C)C2` [E 2, 12-(((5-fluoro-2,3-dihydrobenzofuran-4-yl)methyl)amino)-4-isopropyl-7-methyl-4,5-dihydro-3H-2,4,8,11,12a-pentaazabenzo[4,5]cycloocta[1,2,3-cd] inden-3-one], the IC50 was < 10 nM.

Turning to `O=C1c2ncn3c(NCc4c(F)ccc5c4CCO5)ncc(c23)-c2ccc(CC3COCCO3)nc2CN1CC(F)(F)F` (centres unmarked) [E 49, 7-((1,4-dioxan-2-yl)methyl)-12-(((5-fluoro-2,3-dihydrobenzofuran-4-yl)methyl)amino)-4-(2,2,2-trifluoroethyl)-4,5-dihydro-3H-2,4,6,11,12a-pentaazabenzo[4,5]cycloocta[1,2,3-cd] inden-3-one], the IC50 is < 10 nM.

With `CCc1cnc2n1Cc1nc(C)ccc1-c1cnc(NCc3c(F)ccc4c3CCO4)n3cnc-2c13` [E 38, 5-ethyl-N-((5-fluoro-2,3-dihydrobenzofuran-4-yl)methyl)-8-methyl-6H-2,3,5a,7,12,13a-hexaazabenzo [4,5]cyclopenta[7,8]cycloocta[1,2,3-cd]inden-1 3-amine], the IC50 fell in the range of 10 to 100 nM.

The experiment is the same for the next values; noted with them: Table 4A, read-out: Alpha screen.
In the case of `COc1cccc(F)c1CNc1ncc2c3c(ncn13)C(=O)OCc1cc(C(F)(F)F)ccc1-2` [Compound 28, 12-((2-fluoro-6-methoxybenzyl)amino)-7-(trifluoro-methyl)-3H,5H-4-oxa-2,11,12a-triazabenzo[4,5] cycloocta[1,2,3-cd]inden-3-one], the IC50 turned out to be 2.58 nM.

With `O=C1OCc2ncccc2-c2cnc(NCc3c(F)ccc4occc34)n3cnc1c23` [Compound 10, 12-(((5-fluorobenzofuran-4-yl)methyl)amino)-3H, 5H-4-oxa-2,6,11,12a-tetraazabenzo[4,5]cycloocta [1,2,3-cd]inden-3-one], the IC50 was 1.11 nM.

As to `O=C1NCc2ccc(F)cc2-c2cnc(NCc3c(F)ccc4c3CCO4)n3cnc1c23` [Compound 23, 8-fluoro-12-(((5-fluoro-2,3-dihydrobenzofuran-4-yl)methyl)amino)-4,5-dihydro-3H-2,4,11,12a-tetra azabenzo[4,5]cycloocta[1,2,3-cd]inden-3-one], the IC50 was 1.18 nM.

`COc1cccc(F)c1CNc1ncc2c3c(ncn13)C(=O)N(C(C)C)Cc1nc(C(F)(F)F)ccc1-2` [Compound 71, 12-((2-fluoro-6-methoxybenzyl)amino)-4-isopropyl-7-(trifluoromethyl)-4,5-dihydro-3H-2,4,6,11,12a-pentaazabenzo[4,5]cycloocta[1,2,3-cd]inden-3-one]: the IC50 amounted to 8.94 nM.

As to `O=C1NCc2cc(C(F)(F)F)ccc2-c2cnc(NCc3c(F)ccc4c3CCO4)n3cnc1c23` [Compound 19, 12-(((5-fluoro-2,3-dihydrobenzofuran-4-yl)methyl)amino)-7-(trifluoromethyl)-4,5-dihydro-3H-2,4,11, 12a-tetraazabenzo[4,5]cycloocta[1,2,3-cd]inden-3-one], the IC50 was 1.13 nM.

On to `O=C1OCc2cc(C(F)(F)F)ncc2-c2cnc(NCc3c(F)ccc4c3CCO4)n3cnc1c23` [Compound 13, 12-(((5-fluoro-2,3-dihydrobenzofuran-4-yl)methyl)amino)-7-(trifluoromethyl)-3H,5H-4-oxa-2,8,11, 12a-tetraazabenzo[4,5]cycloocta[1,2,3-cd]inden-3-one], for which the IC50 is 1.09 nM.

With `O=C1OCc2ccc(C(F)(F)F)cc2-c2cnc(NCc3c(F)ccc4c3CCO4)n3cnc1c23` [Compound 24, 12-(((5-fluoro-2,3-dihydrobenzofuran-4-yl)methyl)amino)-8-(trifluoromethyl)-3H,5H-4-oxa-2,11,12a-triazabenzo[4,5]cycloocta[1,2,3-cd]inden-3-one], the IC50 came out at 4.75 nM.

In the case of `O=C1Nc2ccccc2-c2cnc(NCc3c(F)ccc4c3CCO4)n3cnc1c23` [Compound 3, 11-(((5-fluoro-2,3-dihydrobenzofuran-4-yl)methyl)amino)-2,4,10,11a-tetraazadibenzo[cd,f]azulen-3(4H)-one], the IC50 came out at 6.88 nM.

With `CC(F)(F)CN1Cc2cc(C(F)(F)F)ccc2-c2cnc(NCc3c(F)ccc4c3CCO4)n3cnc(c23)C1=O` [Compound 63, 4-(2,2-difluoropropyl)-12-(((5-fluoro-2,3-dihydrobenzofuran-4-yl)methyl)amino)-7-(trifluoromethyl)-4,5-dihydro-3H-2,4,11,12a-tetraazabenzo[4,5] cycloocta[1,2,3-cd]inden-3-one], the IC50 stood at 1.89 nM.

As for `O=C1OCc2ncc(C(F)(F)F)cc2-c2cnc(NCc3c(F)ccc4c3CCO4)n3cnc1c23` [Compound 30, 12-(((5-fluoro-2,3-dihydrobenzofuran-4-yl)methyl)amino)-8-(trifluoromethyl)-3H,5H-4-oxa-2,6,11, 12a-tetraazabenzo[4,5]cycloocta[1,2,3-cd]inden-3-one], the IC50 came out at 2.03 nM.

`O=C1c2ncn3c(NCc4c(F)ccc5c4CCO5)ncc(c23)-c2ccc(C(F)(F)F)nc2CN1CC1(O)CC1` [Compound 44, 12-(((5-fluoro-2,3-dihydrobenzofuran-4-yl)methyl)amino)-4-((1-hydroxycyclopropyl)methyl)-7-(trifluoromethyl)-4,5-dihydro-3H-2,4,6,11,12a-pentaazabenzo[4,5]cycloocta[1,2,3-cd]inden-3-one]: the IC50 was 1.34 nM.

Take `CC(F)(F)CN1Cc2nc(C(F)(F)F)ccc2-c2cnc(NCc3c(F)ccc4c3CCO4)n3cnc(c23)C1=O` [Compound 77, 4-(2,2-difluoropropyl)-12-(((5-fluoro-2,3-dihydrobenzofuran-4-yl)methyl)amino)-7-(trifluoromethyl)-4,5-dihydro-3H-2,4,6,11,12a-pentaazabenzo[4,5] cycloocta[1,2,3-cd]inden-3-one]: the IC50 is 1.9 nM.

With `Cc1cccc(F)c1CNc1ncc2c3c(ncn13)COCc1ncccc1-2` [Compound 1, N-(2-fluoro-6-methylbenzyl)-3H,5H-4-oxa-2,6,11, 12a-tetraazabenzo[4,5]cycloocta[1,2,3-cd]inden-1 2-amine], the IC50 was > 10 nM.

Take `O=C1c2ncn3c(NCc4c(F)ccc5c4CCO5)ncc(c23)-c2cnc(C(F)(F)F)cc2CN1C1CC(F)(F)C1` [Compound 85, 4-(3,3-difluorocyclobutyl)-12-(((5-fluoro-2,3-dihydrobenzofuran-4-yl)methyl)amino)-7-(trifluoro-methyl)-4,5-dihydro-3H-2,4,8,11,12a-pentaazabenzo [4,5]cycloocta[1,2,3-cd]inden-3-one]: the IC50 stood at 9.82 nM.

Consider `O=C1c2ncn3c(NCc4c(F)ccc5c4CCO5)ncc(c23)-c2ccc(C(F)(F)F)cc2CN1CCF` [Compound 61, 12-(((5-fluoro-2,3-dihydrobenzofuran-4-yl)methyl)amino)-4-(2-fluoroethyl)-7-(trifluoromethyl)-4,5-dihydro-3H-2,4,11,12a-tetraazabenzo[4,5] cycloocta[1,2,3-cd]inden-3-one], for which the IC50 amounted to 1.19 nM.

For `O=C1NCc2ccc(C(F)(F)F)cc2-c2cnc(NCc3c(F)ccc4c3CCO4)n3cnc1c23` [Compound 26, 12-(((5-fluoro-2,3-dihydrobenzofuran-4-yl)methyl)amino)-8-(trifluoromethyl)-4,5-dihydro-3H-2,4,11, 12a-tetraazabenzo[4,5]cycloocta[1,2,3-cd]inden-3-one], the IC50 came to 9.84 nM.

`O=C1c2ncn3c(NCc4c(F)ccc5c4CCO5)ncc(c23)-c2cnc(C(F)(F)F)cc2CN1CCF` [Compound 72, 12-(((5-fluoro-2,3-dihydrobenzofuran-4-yl)methyl)amino)-4-(2-fluoroethyl)-7-(trifluoromethyl)-4,5-dihydro-3H-2,4,8,11,12a-pentaazabenzo[4,5] cycloocta[1,2,3-cd]inden-3-one]: the IC50 worked out at 2.69 nM.

`O=C1c2ncn3c(NCc4c(F)ccc5c4CCO5)ncc(c23)-c2ccc(C(F)(F)F)nc2CN1C1CCOCC1` [Compound 51, 12-(((5-fluoro-2,3-dihydrobenzofuran-4-yl)methyl)amino)-4-(tetrahydro-2H-pyran-4-yl)-7-(trifluoromethyl)-4,5-dihydro-3H-2,4,6,11, 12a-pentaazabenzo [4,5]cycloocta[1,2,3-cd]inden-3-one]: the IC50 amounted to 0.7 nM.

Source of the values: US20240316051A1, “A PHARMACEUTICAL COMBINATION AND USE THEREOF” (Ascentage Pharma (Suzhou) Co., Ltd., priority 2021, published 2024).
